In article PMC6747318, “Mutual Enhancement of Opioid and Adrenergic Receptors by Combinations of Opioids and Adrenergic Ligands Is Reflected in Molecular Complementarity of Ligands: Drug Development Possibilities” (International Journal of Molecular Sciences, 2019) one finds Kd data, which are given here for 13 molecules.

Where “and” joins values, the source holds several entries; their conditions need not be identical. Equal entries are not always repeated. Structures can show the parent of a compound that is named as a salt. Where two headings read alike, the source gives them in different places.

Test [1] is described as follows: UV spectroscopy binding between compounds: binding to amphetamine.
The nature of test [2]: UV spectroscopy binding between compounds: binding to glucose. As to conditions: read-out: Kd @ 200 nm, binding to Glucose, pH 7.4 sodium phosphate buffer.
Test [3] in a line: UV spectroscopy binding between compounds: binding to naloxone. As to conditions: pH 7.4 sodium phosphate buffer, read-out: Kd @ 200 nm, binding to NAL.
A further test has as its target methionine-enkephalin (Homo sapiens, UniProt P01210). The test is described as follows: UV spectroscopy binding between compounds: binding to methionine-enkephalin. Also on record: M-Enk = methionine-enkephalin; purchased Sigma-Aldrich.
The nature of test [4]: UV spectroscopy binding between compounds: binding to ascorbic acid. The note with it: read-out: Kd @ 200 nm, binding to Asc, pH 7.4 sodium phosphate buffer.
The nature of test [5]: UV spectroscopy binding between compounds: binding to morphine sulfate. As to conditions: read-out: Kd @ 200 nm, binding to Morph; UV spectroscopy, pH 7.4 sodium phosphate buffer; single binding constant.
Test [6] can be described thus: UV spectroscopy binding between compounds: binding to riboflavin. The note with it: pH 7.4 sodium phosphate buffer, read-out: Kd @ 200 nm, binding to Ribo.
A short description of test [7]: UV spectroscopy binding between compounds: binding to methadone. As to conditions: pH 7.4 sodium phosphate buffer, read-out: Kd @ 200 nm, binding to Meth.
Test [8] can be described thus: UV spectroscopy binding between compounds: binding to propranolol.
Test [9] has as its target methionine-enkephalin (Homo sapiens), P01210. Nature of the test: UV spectroscopy. As to conditions: modification not given.
Where [10] appears, read: Kd @ 200 nm, binding to M-Enk, UV spectroscopy, pH 7.4 sodium phosphate buffer, single binding constant.
Where [11] appears, read: read-out: Kd @ 200 nm, binding to Amph, UV spectroscopy, pH 7.4 sodium phosphate buffer, single binding constant.
The mark [12] stands for this setting: read-out: Kd @ 200 nm, binding to Prop, UV spectroscopy, pH 7.4 sodium phosphate buffer, single binding constant.
Setting [13] is: Kd @ 200 nm, binding to M-Enk, high affinity binding, double curve, first value.
The mark [14] stands for this setting: read-out: Kd @ 200 nm, binding to M-Enk, low affinity binding, double curve, second value.
Where [15] appears, read: UV spectroscopy, pH 7.4 sodium phosphate buffer, single binding constant, read-out: Kd @ 200 nm, binding to M-Enk.

Chain of methionine-enkephalin (Homo sapiens), P01210 (P01210 whole entry, looked up): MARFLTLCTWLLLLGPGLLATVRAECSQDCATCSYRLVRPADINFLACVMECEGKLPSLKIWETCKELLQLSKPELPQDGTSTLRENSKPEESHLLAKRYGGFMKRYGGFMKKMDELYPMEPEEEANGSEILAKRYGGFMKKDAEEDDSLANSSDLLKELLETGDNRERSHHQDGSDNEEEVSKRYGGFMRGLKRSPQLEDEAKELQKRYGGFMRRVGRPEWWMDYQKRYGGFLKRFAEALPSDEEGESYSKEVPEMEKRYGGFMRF

One may read the Kd as the free concentration of one partner at which half of the binding sites on the other are occupied at equilibrium, for simple one-to-one binding. Regarding `COc1cc(CC(=O)O)ccc1O` [Homovanillic Acid], the Kd in test [1] (read-out: Kd @ 200 nm, binding to Amph, high affinity binding, double curve, first value) is 1.5 µM; in test [1] (read-out: Kd @ 200 nm, binding to Amph, low affinity binding, double curve, second value), 90 µM; in test [2], more than 1000 µM; in [3], 85 µM; on methionine-enkephalin (setting [10]) it was 80 µM; in test [4] it was more than 1000 µM. For the same molecule, the Kd in test [5] is more than 1000 µM; in [6], 70 µM; in test [7], more than 1000 µM.
`N[C@@H](Cc1ccc(O)c(O)c1)C(=O)O` [L-DOPA, L-3,4-dihydroxyphenylalanine]: the dissociation constant (Kd) in [1] (setting [11]) is 11 µM; in [8] (setting [12]), 15 µM; in [2], more than 1000 µM; at methionine-enkephalin (setting [10]) it was 70 µM; in test [4] it was 100 µM; in [5], more than 1000 µM. Moreover, the Kd was more than 1000 µM in test [6] and 80 µM in test [7].
For the molecule `COc1ccc2[nH]cc(CCNC(C)=O)c2c1` [Melatonin], the Kd in test [1] (setting [11]) is 70 µM; in [8] (setting [12]), 90 µM; in test [2] it was more than 1000 µM; in test [3], 12 µM; on methionine-enkephalin (setting [10]) it was 130 µM; in [4], 400 µM. The dissociation constant Kd in test [5] and in [7] was 300 µM throughout.
For the molecule `NC[C@H](O)c1ccc(O)c(O)c1` [Norepinephrine HCl], the Kd is 80 µM in [1] (setting [11]); more than 1000 µM in test [8] (setting [12]); more than 1000 µM in test [2]; 80 µM in test [3]; 5.3 µM at methionine-enkephalin (setting [13]); 35 µM at methionine-enkephalin (setting [14]). The Kd in test [4] is 110 µM; in test [5] it was 0.4 µM; in [6], more than 1000 µM; in test [7], 70 µM.
On to `NCC(O)c1ccc(O)cc1` (stereo not shown) [Octopamine], for which the dissociation constant (Kd) was 100 µM in test [1] (setting [11]); more than 1000 µM in [2]; 55 µM in test [3]; 80 µM at methionine-enkephalin (setting [10]); 220 µM in test [4]; 3.2 µM in test [5]. Further, the dissociation constant (Kd) in [6] was 30 µM; in test [7], more than 1000 µM.
As for `N[C@@H](Cc1ccccc1)C(=O)O` [Phenylalanine], the dissociation constant (Kd) in test [1] (setting [11]) is 85 µM; in test [2] it was more than 1000 µM; in [3] it was 70 µM; on methionine-enkephalin (setting [15]), more than 1000 µM; in [4], more than 1000 µM; in [5] it was more than 1000 µM. Further, the Kd in test [6] was 50 µM; in test [7] it was more than 1000 µM.
Take `CC(C)NCC(O)COc1cccc2ccccc12` (stereo not shown) [Propranolol]: the equilibrium dissociation constant (Kd) is ~3 µM and 3 µM on methionine-enkephalin (setting [13]); 35 µM at methionine-enkephalin (setting [14]); approximately 35 µM on methionine-enkephalin (read-out: Kd @ 200 nm, binding to M-Enk, low affinity binding, double curve, second value, listed as propranolol).
For the molecule `CC(C)(C)NCC(O)c1ccc(O)c(CO)c1` (stereo not shown) [Salbutamol], the Kd was 0.6 µM in test [1] (setting [11]); 1 µM in test [8] (read-out: Kd @ 200 nm, binding to Prop, high affinity binding, double curve, first value); 130 µM in test [8] (read-out: Kd @ 200 nm, binding to Prop, low affinity binding, double curve, second value); more than 1000 µM in test [2]; 180 µM in [3]; 30 µM at methionine-enkephalin (setting [10]). Moreover, the Kd in test [4] is 160 µM; in [5], 0.3 µM; in test [6] it was 50 µM; in test [7] it was more than 1000 µM.
Turning to `NCCc1ccc(O)cc1` [Tyramine], the dissociation constant (Kd) in test [1] (setting [11]) was 60 µM; in [8] (setting [12]) it was 80 µM; in test [2] it was more than 1000 µM; in test [3] it was 90 µM; on methionine-enkephalin (setting [10]), 12 µM; in [4] it was 200 µM. The values for the Kd in test [5], in [6] and in test [7] were 50 µM, 40 µM and 210 µM, respectively.
For the molecule `N[C@@H](Cc1ccc(O)cc1)C(=O)O` [Tyrosine], the dissociation constant (Kd) in test [1] (setting [11]) was 53 µM; in test [8] (setting [12]), 20 µM; in test [2] it was more than 1000 µM; in test [3], 75 µM; on methionine-enkephalin (setting [15]) it was more than 1000 µM; in test [4], 270 µM. In addition, the Kd was more than 1000 µM in [5], more than 1000 µM in test [6] and 250 µM in test [7].
With KYRQGSIDCTLTFSHP [mu opioid receptor 211-226, P35372], the Kd in test [9] was determined as 1 µM.
On the same count and under the same terms, the value for STLPFQSVNYL [mu opioid receptor 121-131, P35372] was 90 µM; that for VNFSFCQDLHHKCKNSRRQ [insulin receptor 281-299, P06213] was more than 1000 µM.
